This assay relates to airway smooth muscle (bronchial rings). Kind of assay: Relaxation of evoked isometric force of bronchial rings (wire myograph). It counts as cell-based, mice. How it is done: Briefly, the entire respiratory tree was rapidly removed and immersed in Krebs-Henseleit buffer (118.1 mM NaCl, 4.7 mM KCl, 1.2 mM MgSO4, 2.5 mM CaCl2, 1.0 mM NaH2PO4, 25 mM NaHCO3 and 11.1 mM glucose, pH 7.4). Bronchial rings, 2 mm in length, were isolated from pulmonary bronchi using a dissection microscope. Then the bronchial segments were mounted in a small-vessel wire myograph chamber (Danish Myo Technology, Aarhus, Denmark) by threading on two steel wires (40 μm in diameter) secured to two supports. One support was attached to a force transducer for measurements of isometric force development, and the other was attached to a micrometer controlling ring circumference. The preparation was kept in the chamber, immersed in 5 ml of Krebs-Henseleit solution, bubbled with 5% CO2 and 95% O2 and maintained at 37° C. The initial isometric tension of bronchial ring was set to 0 mN prior to equilibration for 20 min. The bronchial ring was then stretched in order to keep the force at 5 mN followed by an additional equilibration for 20 min. The isometric forces produced by bronchial ring was recorded with a data acquisition and analysis program (Danish Myo Technology, Aarhus, Denmark).
The robust relaxation effect and low risk of toxicity of KE on airway smooth muscle indicates its promising prospects for development. To identify the active ingredients of KE, the KE was divided into three parts including EtOAc phase, n-BuOH phase and water phase using EtOAc and n-BuOH sequential extraction. Upon the airway smooth muscle rings reached a relative steady contraction state evoked by MCh, accumulated volume of these three phases was added to assess the relaxation capacity. […] On the other hand, 1 μL of EtOAc phase just relaxed the rings to 90%.
Their dose-responsive effect on relaxation of airway smooth muscle was measured. When the force evoked by acetylcholine reached a relatively steady state, kudinosides were added to the bath in cumulative concentrations (0.1 μM, 0.3 μM, 1 μM, 3 μM, 10 μM, 30 μM). […] When the concentration of kudinoside D increased to 10 μM, about 50% of the force was relaxed. Strikingly, upon treatment with 30 μM of kudinoside D, more than 80% of the force was relaxed (FIG. 5B). Similarly, 30 μM of kudinoside A also led to 80% inhibition of evoked force. Note that the relaxation effect of kudinosides was completely reversible, because the relaxed muscles restored response to MCh after washing off.

The source of these data is patent publication US10786521B2, “Methods and compositions for treatment of COPD diseases” (Shanghai KE Pharmaceutical Co., LTD, priority 2014, dated 2020).

In the case of `C[C@@H]1O[C@@H](O[C@H]2[C@H](O[C@H]3CC[C@@]4(C)C(CC[C@]5(C)C4C=CC4=C6[C@]7(CC[C@](C)(OC7=O)[C@@]6(C)O)CC[C@]45C)C3(C)C)OC[C@H](O)[C@@H]2O[C@@H]2O[C@H](CO)[C@@H](O)[C@H](O)[C@H]2O)[C@H](O)[C@H](O)[C@H]1O` (stereo partly drawn) [Kudinoside D], the “force relaxed at 10 μM” value (force evoked by acetylcholine, cumulative concentrations, 10 μM) is on record as “about 50%”. Moreover, for the setting “force evoked by acetylcholine, cumulative concentrations, 30 μM”, the “force relaxed / inhibition of evoked force at 30 μM” value is listed as “more than 80%”. Further, the “relaxation of evoked force of airway smooth muscle / bronchial rings” value (in vitro, concentration not given) is “significantly relaxed bronchial rings in a dose-dependent manner”.
